How the values were obtained:
[1] = target: allosteric site of SERT (Homo sapiens, UniProt P31645); test: Dissociation binding studies (3H-escitalopram), allosteric modulation of the serotonin transporter
Method: Whether a compound operates through an allosteric mechanism can be determined by in vitro dissociation experiments. Dissociation binding experiments measure the “off rate” (koff) for a radioligand of the protein. After radioligand and transporter protein are allowed to bind (i.e. form a complex), then ligand is added to block further binding of radioligand to the transporter so that the rate of dissociation can be measured. Binding (as measured by radioactivity of the radioligand:transporter complex) is measured at various times to determine the rate at which the radioligand dissociates from the transporter. Dissociation rate constants can be used to determine the half-life of the bound complex. Half-life determinations can be used to ascertain whether a compound is an allosteric modulator of the human SERT.

[2] = target: T1, serotonin transporter (Rattus norvegicus, UniProt P31652); test: Inhibition of 3H-serotonin uptake in rat brain synaptosomes; type: biochemical; conditions: 3H-5-HT 10 nM, read-out: uptake inhibitory potency (IC50)
T1 construct: The P2 fraction (synaptosomal fraction) was obtained by centrifugation; from tissue; host or cells: Male Wistar rat brain (minus cerebellum), P2 synaptosomal fraction
Method: In order to test compounds at the primary, high-affinity binding site of the serotonin transporter, i.e. determine if a compound is a serotonin reuptake inhibitor, inhibition of the uptake of serotonin (5-HT) was determined.
By the following method, the inhibition of the uptake of ^3H-serotonin (^3H-5-HT) (10 nM) in rat brain synaptosomes by test compounds was determined in vitro. Exemplary methods, and also results of serotonin uptake for specific SRIs, is described in Hyttel, J., Psychopharmacology 1978, 60:13-18; Hyttel, J., Prog. Neuro-Psychopharmacol. & Biol. Psychait. 1982, 6:277-295; Hyttel, J. & Larsen, Acta Pharmacol. Tox. 1985, 56(suppl. 1):146-153; Sanchez, C. and Hyttel, J. European J. Pharm. […]
To 400 μl of the synaptosomal suspension (5 mg original tissue) on ice, 100 μl test compound in water was added. […] After shaking for 1 h and storage for 2 h in the dark, the content of radioactivity was determined by liquid scintillation counting (cpm). Uptake was obtained by subtracting the non-specific binding and passive transport measured in the presence of 10 μM […]. The measured cpm was plotted against test compound concentration, and the best fitting s-shaped curve was drawn. The uptake inhibitory potencies are expressed as IC50 values in nM (logarithmic means). Two full concentration-response curves were measured using five concentrations of test compound in triplicate.

[3] = target: norepinephrine transporter (NET) (Homo sapiens, UniProt P23975); test: In vitro reuptake inhibitory potency at the norepinephrine transporter; type: biochemical
[4] = tested on: dorsal raphe 5-HT neurons; test: Inhibitory effect on the firing activity of dorsal raphe 5-HT neurons (extracellular unitary recordings, anesthetized rats); type: in vivo, rat
Method: The experiments were carried out in male Sprague-Dawley rats (Harlan, Gannat, FRANCE) weighing 250 to 300 g at the day of the experiment and which have been kept under standard laboratory conditions (12:12 light-dark cycle with free access to food and water). The animals were anesthetized with chloral hydrate (400 mg/kg, i.p.). Supplemental doses were given to maintain constant anesthesia and to prevent any nociceptive reaction to a tail pinch.
Extracellular unitary recordings of dorsal raphe 5-HT neurons were performed with single-barreled glass micropipettes preloaded with fiberglass filaments in order to facilitate filling. The tip was broken back to 2 to 4 μm and filled with a 2M NaCl solution saturated with Blue Chicago dye. The rats (control or treated) were placed in a stereotaxic frame and a burr hole was drilled on the midline 1 mm anterior to lambda. Dorsal raphe 5-HT neurons were encountered over a distance of 1 mm starting immediately below the ventral border of the Sylvius aqueduct. These neurons were identified using the criteria of Aghajanian (Aghajanian, G. K., Essays Neurochem Neuropharmacol 2000, 3: 1-32): a slow (0.5-2.5 Hz) and regular firing rate and long-duration (0.8-1.2 ms) positive action potentials.
To determine putative synergistic effect of Compound II (2-(6-Fluoro-1H-indol-3-ylsulfanyl)-benzyl]-methyl-amine) on the inhibitory action of 5-HTP (25 mg/kg, i.v.) on the firing activity of dorsal raphe 5-HT neurons, a dose of Compound II corresponding to 20-30% of inhibition, was injected prior to and after the administration of 5-HTP.
Statistical analysis was performed with SigmaStat for Window version 4.0 software (Jandel Corporation). Average was the mean±SEM. Significance was considered for p<0.05.

[5] = target: human serotonin transporter expressed in COS-1 cell membranes (Homo sapiens, UniProt P31645); conditions: cited from earlier work
[6] = tested on: ultrasonic vocalization; conditions: rat, cited from earlier work
[7] = tested on: isolation-induced aggression; conditions: mouse, with subeffective dose of L; cited from earlier work

Sequence of norepinephrine transporter (NET) (P23975 whole entry, species assumed): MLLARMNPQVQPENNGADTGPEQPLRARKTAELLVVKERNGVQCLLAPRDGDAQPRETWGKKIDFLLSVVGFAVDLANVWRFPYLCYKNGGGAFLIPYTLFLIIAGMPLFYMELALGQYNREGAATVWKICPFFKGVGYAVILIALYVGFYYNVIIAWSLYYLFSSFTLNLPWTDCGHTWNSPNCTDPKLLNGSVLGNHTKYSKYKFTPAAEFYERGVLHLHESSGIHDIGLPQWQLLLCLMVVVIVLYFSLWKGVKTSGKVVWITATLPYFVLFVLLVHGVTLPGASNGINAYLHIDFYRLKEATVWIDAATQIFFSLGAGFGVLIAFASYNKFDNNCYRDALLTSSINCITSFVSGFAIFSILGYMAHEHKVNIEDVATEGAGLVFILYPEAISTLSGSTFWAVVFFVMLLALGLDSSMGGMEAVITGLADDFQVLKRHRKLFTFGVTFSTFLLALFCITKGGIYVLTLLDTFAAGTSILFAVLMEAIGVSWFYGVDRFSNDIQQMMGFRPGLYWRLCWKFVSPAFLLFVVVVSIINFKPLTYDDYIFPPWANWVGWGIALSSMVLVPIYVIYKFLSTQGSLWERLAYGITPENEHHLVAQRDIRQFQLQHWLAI
Sequence of allosteric site of SERT (P31645 whole entry): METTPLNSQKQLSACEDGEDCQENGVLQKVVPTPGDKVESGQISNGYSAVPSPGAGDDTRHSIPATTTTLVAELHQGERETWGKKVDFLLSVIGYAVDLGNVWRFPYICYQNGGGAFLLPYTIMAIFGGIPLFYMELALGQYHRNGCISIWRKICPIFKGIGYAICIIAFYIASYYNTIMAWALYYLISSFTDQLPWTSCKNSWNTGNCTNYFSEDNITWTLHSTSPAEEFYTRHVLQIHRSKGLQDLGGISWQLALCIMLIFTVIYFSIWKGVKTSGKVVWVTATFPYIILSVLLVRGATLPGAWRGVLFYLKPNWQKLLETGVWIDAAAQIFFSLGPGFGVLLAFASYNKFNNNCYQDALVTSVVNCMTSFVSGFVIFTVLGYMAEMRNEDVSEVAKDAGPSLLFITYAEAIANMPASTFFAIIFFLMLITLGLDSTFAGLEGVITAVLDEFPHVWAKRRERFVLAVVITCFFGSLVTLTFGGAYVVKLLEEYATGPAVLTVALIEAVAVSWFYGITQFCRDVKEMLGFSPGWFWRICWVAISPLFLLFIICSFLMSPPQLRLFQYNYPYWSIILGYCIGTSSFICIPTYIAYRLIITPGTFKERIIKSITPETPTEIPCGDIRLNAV
Sequence of human serotonin transporter expressed in COS-1 cell membranes (P31645 whole entry): as above
T1 sequence (P31652 whole entry): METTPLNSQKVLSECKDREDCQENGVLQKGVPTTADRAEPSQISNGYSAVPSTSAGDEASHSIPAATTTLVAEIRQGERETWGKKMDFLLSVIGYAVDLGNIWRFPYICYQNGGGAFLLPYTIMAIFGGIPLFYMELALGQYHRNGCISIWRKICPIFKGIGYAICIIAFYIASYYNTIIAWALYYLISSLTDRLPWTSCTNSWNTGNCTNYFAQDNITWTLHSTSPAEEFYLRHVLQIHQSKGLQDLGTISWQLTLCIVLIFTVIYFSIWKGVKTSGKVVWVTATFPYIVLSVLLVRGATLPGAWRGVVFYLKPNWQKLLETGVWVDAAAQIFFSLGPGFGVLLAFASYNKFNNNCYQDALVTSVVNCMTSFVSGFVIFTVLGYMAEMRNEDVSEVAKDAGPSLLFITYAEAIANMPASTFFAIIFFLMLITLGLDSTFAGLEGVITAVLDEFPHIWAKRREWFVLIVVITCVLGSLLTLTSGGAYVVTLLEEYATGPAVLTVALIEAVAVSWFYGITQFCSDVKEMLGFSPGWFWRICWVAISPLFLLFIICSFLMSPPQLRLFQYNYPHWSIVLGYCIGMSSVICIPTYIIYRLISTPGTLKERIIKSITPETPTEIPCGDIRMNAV

CNCc1ccccc1Sc1c[nH]c2cc(F)ccc12 [Compound II]
effect on dissociation rate of 3H-escitalopram [1]: significantly slowed
IC50 [2]: 0.35 nM
inhibitory effect at NET (in vitro reuptake inhibitory potency) [3]: exerts an inhibitory effect
further decrease of firing ([4]; Compound II 0.025 mg/kg as second injection after 5-HTP 25 mg/kg, six rats): 82.43±2.78%
inhibition at 0.025 mg/kg ([4]; Rattus norvegicus, Neuron, Compound II 0.025 mg/kg alone (first injection), six rats, mean±SEM): 24.1 ± 4.98%

NC(Cc1c[nH]c2ccc(O)cc12)C(=O)O (stereo not drawn) [Compound 5-HTP, 2-amino-3-(5-hydroxy-1H-indol-3-yl)-propanoic acid]
reduction of dorsal raphe 5-HT neuron firing ([4]; 5-HTP 25 mg/kg i.v. alone (first injection), six rats, mean±SEM): 13.4±2.26%
further decrease of firing ([4]; 5-HTP 25 mg/kg injected after Compound II 0.025 mg/kg, six rats): 70.53±2.76%

CNCC[C@H](Oc1cccc2ccccc12)c1cccs1 [duloxetine]
stabilizing effect on radioligand:human serotonin transporter complex (dissociation from primary site) [5]: little or no stabilizing effect

CN(C)CCC[C@]1(c2ccc(F)cc2)OCc2cc(C#N)ccc21 [R-citalopram]
ultrasonic vocalization compared to controls ([6]; concomitant treatment): significant increase

CN(C)CCC[C@@]1(c2ccc(F)cc2)OCc2cc(C#N)ccc21 [escitalopram]
anxiolytic response to co-treatment with L, 5-HTP ([6]; co-treatment with L, 5-HTP): markedly enhanced

Fc1ccc([C@@H]2CCNC[C@H]2COc2ccc3c(c2)OCO3)cc1 [paroxetine]
antiaggressive effect on co-administration of a subeffective dose of L, 5-HTP [7]: greatly potentiated

COc1ccccc1N1CCN(CCN(C(=O)C2CCCCC2)c2ccccn2)CC1 [WAY-100635]
effect on spontaneous firing rate of the neuron ([4]; administered after Compound II and 5-HTP): increases the spontaneous firing rate

Reference: patent US20100286226A1, “COMBINATION THERAPY RELATED TO SEROTONIN DUAL ACTION COMPOUNDS” (H. LUNDBECK A/S, priority 2007, published 2010)
